In patent publication US10258042B2, “Substituted pyrazolylpyrazole derivative and use of same as herbicide” (KYOYU AGRI CO., LTD., priority 2015, dated 2019):

Experiments:
Type in all cases: in vivo
Oryza sativa = experiment: Paddy herbicidal activity test, phytotoxicity to transplanted rice; details: rice plants in the 2.0 leaf stage transplanted, 30 days, 30° C.
Experimental: (§1) Rice paddy soil was filled into a 1/10000 are pot followed by the addition of suitable amounts of water and chemical fertilizer, kneading, seeding with Echinochloa crus-galli, Monochoria vaginalis and Scirpus juncoides and maintaining in an irrigated state at a water depth of 3 cm.
(§2) Wettable powders of Target Compound (I) shown in Table 1 prepared in compliance with the preparation examples were diluted with a suitable amount of water, rice plants in the 2.0 leaf stage were transplanted during 3.5 leaf stage of Echinochloa crus-galli, and treated by dropping in chemical in the prescribed amount per 10 are using a pipette.
(§3) After treating for 30 days in a glass greenhouse at an average atmospheric temperature of 30° C., the herbicidal efficacy thereof was investigated.
(§4) Evaluation of herbicidal efficacy was carried out by comparing growth inhibition rate (%) with an untreated group, while evaluation of phytotoxicity was carried out by comparing growth inhibition rate (%) with the state of a complete eradication group, and were evaluated at 11 levels indicated below.

Digitaria ciliaris [1] = experiment: Weed foliar treatment test (Test Example 4, higher leaf stage); details: 10 g a.i./10a; foliar spray at 4.0 to 5.0 leaf stage of Digitaria ciliaris (plant height 10 cm to 15 cm); 20 days, 25° C.
Experimental: (§5) Field soil was filled into a 1/4500 are pot followed by seeding with Digitaria ciliaris and Galinsoga parviflora, covering with soil and cultivating in a glass greenhouse at an average atmospheric temperature of 25° C.
(§6) Wettable powders of Target Compound (I) shown in Table 1 prepared in compliance with the preparation examples were diluted with water to the prescribed amount of chemical and uniformly sprayed onto the weeds using 100 liters of sprayed water per 10 are when Digitaria ciliaris had grown to the 4.0 to 5.0 leaf stage (plant height: 10 cm to 15 cm).
(§7) After treating for 20 days in a glass greenhouse at an average atmospheric temperature of 25° C., the herbicidal efficacy thereof was investigated.
(§8) Evaluation of herbicidal efficacy was carried out in the same manner as the above-mentioned Test Example 1.

Galinsoga parviflora = experiment: as above; details: 10 g a.i./10a; foliar spray at 4.0 to 5.0 leaf stage of Digitaria ciliaris; 20 days, 25° C.
Experimental: as §5, §6, §7, §8

Digitaria ciliaris [2] = experiment: Farming soil treatment test; details: soil surface spray prior to weed growth, 30 days, 30° C.
Experimental: (§9) Field soil was filled into a 1/6000 are pot followed by seeding with Digitaria ciliaris, Chenopodium album and Amaranthus retroflexus and covering with soil.
(§10) Wettable powders of compounds of formula (I) shown in Table 1 prepared in compliance with the preparation examples were diluted with water to the prescribed amount of chemical and uniformly sprayed onto each soil surface layer using 100 liters of sprayed water per 10 are prior to weed growth following seeding.
as §3
(§11) Evaluation of herbicidal efficacy was carried out in the same manner as the above-mentioned Test Example 1,

Chenopodium album [3] = experiment: Farming soil treatment test; details: soil surface spray prior to weed growth, 30 days, 30° C.
Experimental: as §9, §10, §3, §11

Amaranthus retroflexus [4] = experiment: Farming soil treatment test; details: soil surface spray prior to weed growth, 30 days, 30° C.
Experimental: as §9, §10, §3, §11

Echinochloa crus-galli = experiment: Paddy herbicidal activity test; details: irrigated paddy pot, treated at 3.5 leaf stage of Echinochloa crus-galli, 30 days, 30° C.
Experimental: as §1, §2, §3, §4

Monochoria vaginalis = experiment: Paddy herbicidal activity test; details: irrigated paddy pot, 30 days, 30° C.
Experimental: as §1, §2, §3, §4

Scirpus juncoides = experiment: Paddy herbicidal activity test; details: irrigated paddy pot, 30 days, 30° C.
Experimental: as §1, §2, §3, §4

Digitaria ciliaris [5] = experiment: Weed foliar treatment test (Test Example 3); details: foliar spray at 1.0 to 2.0 leaf stage of Digitaria ciliaris, 3 weeks, 25° C.
Experimental: (§12) Soil was filled into a 1/6000 are pot followed by seeding with Digitaria ciliaris, Chenopodium album and Amaranthus retroflexus, covering with soil, and cultivating in a glass greenhouse at an average atmospheric temperature of 25° C.
as §6, with “150” for “100”, “1.0” for “4.0”, “2.0” for “5.0”, “stage.” for “stage (plant height: 10 cm to 15 cm).”
(§13) After treating for 3 weeks in a glass greenhouse at an average atmospheric temperature of 25° C., the herbicidal efficacy thereof was investigated.
as §8

Chenopodium album [6] = experiment: Weed foliar treatment test (Test Example 3); details: foliar spray at 1.0 to 2.0 leaf stage of Digitaria ciliaris, 3 weeks, 25° C.; for herbicidal efficacy, Chenopodium alubum: 5 g a.i./10a; for herbicidal efficacy, Chenopodium album: 10 g a.i./10a
Experimental: as §12
as §6, with “150” for “100”, “1.0” for “4.0”, “2.0” for “5.0”, “stage.” for “stage (plant height: 10 cm to 15 cm).”
as §13, §8

Amaranthus retroflexus [7] = experiment: Weed foliar treatment test (Test Example 3); details: foliar spray at 1.0 to 2.0 leaf stage of Digitaria ciliaris, 3 weeks, 25° C.
Experimental: as §12
as §6, with “150” for “100”, “1.0” for “4.0”, “2.0” for “5.0”, “stage.” for “stage (plant height: 10 cm to 15 cm).”
as §13, §8

Compound | phytotoxicity, Oryza sativa (Oryza sativa; 1 g a.i./10a) | phytotoxicity, Oryza sativa (Oryza sativa; 5 g a.i./10a) | herbicidal efficacy, Digitaria ciliaris (Digitaria ciliaris [1]) | herbicidal efficacy, Galinsoga parviflora (Galinsoga parviflora) | herbicidal efficacy, Digitaria ciliaris (Digitaria ciliaris [2]; 5 g a.i./10a) | herbicidal efficacy, Digitaria ciliaris (Digitaria ciliaris [2]; 10 g a.i./10a) | herbicidal efficacy, Chenopodium album (Chenopodium album [3]; 5 g a.i./10a) | herbicidal efficacy, Chenopodium album (Chenopodium album [3]; 10 g a.i./10a) | herbicidal efficacy, Amaranthus retroflexus (Amaranthus retroflexus [4]; 5 g a.i./10a) | herbicidal efficacy, Amaranthus retroflexus (Amaranthus retroflexus [4]; 10 g a.i./10a) | herbicidal efficacy, Echinochloa crus-galli (Echinochloa crus-galli; 1 g a.i./10a) | herbicidal efficacy, Echinochloa crus-galli (Echinochloa crus-galli; 5 g a.i./10a) | herbicidal efficacy, Monochoria vaginalis (Monochoria vaginalis; 1 g a.i./10a) | herbicidal efficacy, Monochoria vaginalis (Monochoria vaginalis; 5 g a.i./10a) | herbicidal efficacy, Scirpus juncoides (Scirpus juncoides; 1 g a.i./10a) | herbicidal efficacy, Scirpus juncoides (Scirpus juncoides; 5 g a.i./10a) | herbicidal efficacy, Digitaria ciliaris (Digitaria ciliaris [5]; 5 g a.i./10a) | herbicidal efficacy, Digitaria ciliaris (Digitaria ciliaris [5]; 10 g a.i./10a) | herbicidal efficacy, Chenopodium alubum (Chenopodium album [6]) | herbicidal efficacy, Chenopodium album (Chenopodium album [6]) | further results
CCCCC(=O)Nc1c(C#N)cnn1-c1nn2c(c1Cl)CCCC2 [Control agent 4.191, reference compound] | 1 (1: 10% to less than 20%) | 1 (1: 10% to less than 20%) | 0 (0 (exponent): 0% to less than 10% (growth inhibition rate)) | 3 (3: 30% to less than 40%) | 0 (0 (exponent): 0% to less than 10% (growth inhibition rate)) | 0 (0 (exponent): 0% to less than 10% (growth inhibition rate)) | 3 (3: 30% to less than 40%) | 3 (3: 30% to less than 40%) | 2 (2: 20% to less than 30%) | 3 (3: 30% to less than 40%) | 2 (2: 20% to less than 30%) | 2 (2: 20% to less than 30%) | 2 (2: 20% to less than 30%) | 2 (2: 20% to less than 30%) | 0 (0 (exponent): 0% to less than 10% (growth inhibition rate)) | 1 (1: 10% to less than 20%) | 0 (0 (exponent): 0% to less than 10% (growth inhibition rate)) | 0 (0 (exponent): 0% to less than 10% (growth inhibition rate)) | 3 (3: 30% to less than 40%) | 2 (2: 20% to less than 30%) | herbicidal efficacy, Amaranthus retroflexus (Amaranthus retroflexus [7]; 5 g a.i./10a): 4 (4: 40% to less than 50%); herbicidal efficacy, Amaranthus retroflexus (Amaranthus retroflexus [7]; 10 g a.i./10a): 5 (5: 50% to less than 60%)
N#Cc1cnn(-c2nn3c(c2Cl)CCCC3)c1NC(=O)CCCCl [Control agent 1.37, reference compound] | 2 (2: 20% to less than 30%) | 2 (2: 20% to less than 30%) | – | – | – | – | – | – | – | – | – | – | – | – | – | – | – | – | – | – | –
CCCC(=O)Nc1c(C#N)cnn1-c1nn2c(c1Cl)CCCC2 [Control agent 4.188, reference compound] | 2 (2: 20% to less than 30%) | 2 (2: 20% to less than 30%) | 0 (0 (exponent): 0% to less than 10% (growth inhibition rate)) | 4 (4: 40% to less than 50%) | 0 (0 (exponent): 0% to less than 10% (growth inhibition rate)) | 1 (1: 10% to less than 20%) | 2 (2: 20% to less than 30%) | 3 (3: 30% to less than 40%) | 4 (4: 40% to less than 50%) | 4 (4: 40% to less than 50%) | 2 (2: 20% to less than 30%) | 3 (3: 30% to less than 40%) | 3 (3: 30% to less than 40%) | 3 (3: 30% to less than 40%) | 0 (0 (exponent): 0% to less than 10% (growth inhibition rate)) | 1 (1: 10% to less than 20%) | 1 (1: 10% to less than 20%) | 2 (2: 20% to less than 30%) | 3 (3: 30% to less than 40%) | 5 (5: 50% to less than 60%) | herbicidal efficacy, Amaranthus retroflexus (Amaranthus retroflexus [7]; 5 g a.i./10a): 4 (4: 40% to less than 50%); herbicidal efficacy, Amaranthus retroflexus (Amaranthus retroflexus [7]; 10 g a.i./10a): 5 (5: 50% to less than 60%)
